One assay has as its system Aspergillus fumigatus. The assay can be described thus: Antifungal activity against Aspergillus fumigatus ATCC 26934 by micro-broth dilution method. The assay is classed as functional. A general note: Dilution methods test growth across graded concentrations, often in twofold steps.
Another assay has as its system Aspergillus niger. Briefly: Antifungal activity against Aspergillus niger ATCC 9029 by micro-broth dilution method. The assay is classed as functional.
Another assay has as its system NCI-H460. The assay can be described thus: Cytotoxicity against human H460 cells by SRB assay. The assay is classed as functional, cell-based.
Another assay deals with Trichophyton rubrum. Briefly: Antifungal activity against Trichophyton rubrum C113 by microbroth dilution method. The assay is classed as functional.
Assay [1] relates to Trichophyton mentagrophytes. Briefly: Antifungal activity against Trichophyton mentagrophytes ATCC 9972 by micro-broth dilution method. The assay is classed as functional.
The test system of assay [2] is Cryptococcus neoformans. The assay can be described thus: Antifungal activity against Cryptococcus neoformans ATCC 32264 by microbroth dilution method. The assay is classed as functional.
The next assay deals with Nannizzia gypsea. Briefly: Antifungal activity against Microsporum gypseum C115 by microbroth dilution method. The assay is classed as functional.
For a further assay, the system named is Candida tropicalis. Briefly: Antifungal activity against Candida tropicalis C131 by micro-broth dilution method. The assay is classed as functional.
In a further assay the test system is Aspergillus flavus. The assay can be described thus: Antifungal activity against Aspergillus flavus ATCC 9170 by micro-broth dilution method. The assay is classed as functional.
A further assay has as its system Candida albicans. Briefly: Antifungal activity against Candida albicans ATCC 10231 by micro-broth dilution method. The assay is classed as functional.
For a further assay, the system named is MCF7. The assay can be described thus: Cytotoxicity against human MCF7 cells by SRB assay. The assay is classed as functional, cell-based.
The test system of the next assay is Saccharomyces cerevisiae. Briefly: Antifungal activity against Saccharomyces cerevisiae ATCC 9763 by microbroth dilution method. The assay is classed as functional.
The next assay concerns SF-268. Briefly: Cytotoxicity against human SF268 cells by SRB assay. The assay is classed as functional, cell-based. For orientation: In SRB staining, fixed cells bind dye roughly in proportion to their protein.
Assay [3] concerns Cryptococcus neoformans. Briefly: Antifungal activity against Cryptococcus neoformans IM 00319 by microbroth dilution method. The assay is classed as functional.
The subject of assay [4] is Cryptococcus neoformans. The assay can be described thus: Antifungal activity against Cryptococcus neoformans IM 972751 by microbroth dilution method. The assay is classed as functional.
Assay [5] has as its system Cryptococcus neoformans. Briefly: Antifungal activity against Cryptococcus neoformans IM 961951 by micro-broth dilution method. The assay is classed as functional.
For assay [6], the system named is Cryptococcus neoformans. The assay can be described thus: Antifungal activity against Cryptococcus neoformans IM 972724 by micro-broth dilution method. The assay is classed as functional.
The subject of assay [7] is Cryptococcus neoformans. The assay can be described thus: Antifungal activity against Cryptococcus neoformans IM 983036 by micro-broth dilution method. The assay is classed as functional.
Assay [8] has as its system Cryptococcus neoformans. The assay can be described thus: Antifungal activity against Cryptococcus neoformans IM 983040 by micro-broth dilution method. The assay is classed as functional.
Assay [9] concerns Cryptococcus neoformans. The assay can be described thus: Antifungal activity against Cryptococcus neoformans IM 031706 by micro-broth dilution method. The assay is classed as functional.
For assay [10], the system named is Cryptococcus neoformans. Briefly: Antifungal activity against Cryptococcus neoformans IM 031631 by micro-broth dilution method. The assay is classed as functional.
Assay [11] has as its system Cryptococcus neoformans. Briefly: Antifungal activity against Cryptococcus neoformans IM 042074 by micro-broth dilution method. The assay is classed as functional.

As usually defined, the MIC is the lowest concentration that inhibits growth of the organism. A high value points to a less susceptible organism. By IC50 is commonly meant the concentration needed to halve the response being measured. Higher therefore signals weaker potency in that assay.

≈ marks a conversion by molar mass, not a printed value. Where only a bound is given, the exact number is not on record here.

In the case of `O=[N+]([O-])c1cccc(NCc2ccncc2)c1`, the minimum inhibitory concentration (MIC) turned out to be 100 µg/mL (≈ 436 µM) in the assay on Aspergillus fumigatus; 100 µg/mL (≈ 436 µM) in the assay on Aspergillus niger; 6.25 µg/mL (≈ 27.3 µM) in the assay with Trichophyton rubrum; 12.5 µg/mL (≈ 54.5 µM) in assay [1]; 50 µg/mL (≈ 218 µM) with Cryptococcus neoformans [2]; 12.5 µg/mL (≈ 54.5 µM) against Nannizzia gypsea. The MIC in the assay on Candida tropicalis is 100 µg/mL (≈ 436 µM); against Aspergillus flavus it was 200 µg/mL (≈ 872 µM); against Candida albicans, 100 µg/mL (≈ 436 µM); in the assay on Saccharomyces cerevisiae it was 50 µg/mL (≈ 218 µM). The concentration for half-maximal inhibition (IC50) was more than 10 µg/mL with NCI-H460, more than 10 µg/mL in the assay on MCF7 and less than 10 µg/mL in the assay on SF-268.

For `Ic1ccc(NCc2ccncc2)cc1`, the MIC was determined as 50 µg/mL (≈ 161 µM) against Aspergillus fumigatus; 50 µg/mL (≈ 161 µM) with Cryptococcus neoformans [3]; 50 µg/mL (≈ 161 µM) with Cryptococcus neoformans [4]; 100 µg/mL (≈ 322 µM) against Cryptococcus neoformans [5]; 50 µg/mL (≈ 161 µM) against Aspergillus niger; 25 µg/mL (≈ 80.6 µM) in the assay with Cryptococcus neoformans [6]. Further, the MIC against Cryptococcus neoformans [7] stood at 50 µg/mL (≈ 161 µM); with Trichophyton rubrum, 6.25 µg/mL (≈ 20.2 µM); in assay [1] it was 12.5 µg/mL (≈ 40.3 µM); against Cryptococcus neoformans [2], 25 µg/mL (≈ 80.6 µM); against Nannizzia gypsea, 12.5 µg/mL (≈ 40.3 µM); against Candida tropicalis, 50 µg/mL (≈ 161 µM). Besides, the MIC in the assay with Cryptococcus neoformans [8] stood at 100 µg/mL (≈ 322 µM); with Aspergillus flavus it was 100 µg/mL (≈ 322 µM); with Candida albicans it was 50 µg/mL (≈ 161 µM); against Cryptococcus neoformans [9], 100 µg/mL (≈ 322 µM); against Cryptococcus neoformans [10] it was 50 µg/mL (≈ 161 µM); with Saccharomyces cerevisiae, 50 µg/mL (≈ 161 µM). In the assay on Cryptococcus neoformans [11], this compound came in with an MIC of 50 µg/mL (≈ 161 µM). Also, the IC50 in the assay on NCI-H460, in the assay with MCF7 and in the assay with SF-268 was more than 10 µg/mL each time.

For `Clc1ccc(NCc2ccco2)cc1Cl`, the MIC against Aspergillus fumigatus was 50 µg/mL (≈ 207 µM); with Cryptococcus neoformans [3], 100 µg/mL (≈ 413 µM); in the assay with Cryptococcus neoformans [4], 100 µg/mL (≈ 413 µM); in the assay on Cryptococcus neoformans [5] it was 100 µg/mL (≈ 413 µM); with Aspergillus niger, 62.5 µg/mL (≈ 258 µM); in the assay with Cryptococcus neoformans [6] it was 25 µg/mL (≈ 103 µM). In addition, the MIC in the assay on Cryptococcus neoformans [7] is 25 µg/mL (≈ 103 µM); with Trichophyton rubrum, 3.12 µg/mL (≈ 12.9 µM); in assay [1] it was 12.5 µg/mL (≈ 51.6 µM); with Cryptococcus neoformans [2] it was 25 µg/mL (≈ 103 µM); with Nannizzia gypsea, 6.25 µg/mL (≈ 25.8 µM); in the assay with Candida tropicalis, 62.5 µg/mL (≈ 258 µM). In addition, the MIC against Cryptococcus neoformans [8] is 100 µg/mL (≈ 413 µM); in the assay on Aspergillus flavus, 50 µg/mL (≈ 207 µM); against Candida albicans it was 62.5 µg/mL (≈ 258 µM); in the assay on Cryptococcus neoformans [9] it was 100 µg/mL (≈ 413 µM); with Cryptococcus neoformans [10], 100 µg/mL (≈ 413 µM); against Saccharomyces cerevisiae it was 50 µg/mL (≈ 207 µM). In the assay with Cryptococcus neoformans [11], the MIC was determined as 25 µg/mL (≈ 103 µM). Moreover, the IC50 amounted to 8.7 µg/mL (≈ 35.9 µM) with NCI-H460, 8 µg/mL (≈ 33 µM) with MCF7 and 8.2 µg/mL (≈ 33.9 µM) in the assay on SF-268.

With `COc1cccc2c1C(=O)c1c(O)c3c(c(O)c1C2=O)C[C@@](O)(C(=O)CO)C[C@@H]3O[C@H]1C[C@H](N)[C@H](O)[C@H](C)O1` [DOXORUBICIN], the IC50 with NCI-H460 turned out to be 0.18 µg/mL (≈ 0.331 µM); in the assay with SF-268, 0.14 µg/mL (≈ 0.258 µM).

Take `OC(Cn1cncn1)(Cn1cncn1)c1ccc(F)cc1F` [FLUCONAZOLE]: the MIC in the assay with Cryptococcus neoformans [3] stood at 1.9 µg/mL (≈ 6.2 µM); in the assay with Cryptococcus neoformans [4], 31.2 µg/mL (≈ 102 µM); in the assay on Cryptococcus neoformans [5], 7.8 µg/mL (≈ 25.5 µM); against Cryptococcus neoformans [6] it was 3.9 µg/mL (≈ 12.7 µM); against Cryptococcus neoformans [7], 15.6 µg/mL (≈ 50.9 µM); against Cryptococcus neoformans [8], 7.8 µg/mL (≈ 25.5 µM). Besides, the MIC against Cryptococcus neoformans [9] stood at 3.9 µg/mL (≈ 12.7 µM); in the assay on Cryptococcus neoformans [10], 31.2 µg/mL (≈ 102 µM); against Cryptococcus neoformans [11], 3.9 µg/mL (≈ 12.7 µM).

In the case of `CCC(C)n1ncn(-c2ccc(N3CCN(c4ccc(OCC5COC(Cn6cncn6)(c6ccc(Cl)cc6Cl)O5)cc4)CC3)cc2)c1=O` (stereo unspecified) [ITRACONAZOLE], the MIC is less than 0.015 µg/mL in the assay on Cryptococcus neoformans [3]; 0.25 µg/mL (≈ 0.354 µM) in the assay on Cryptococcus neoformans [4]; less than 0.015 µg/mL against Cryptococcus neoformans [5]; 0.25 µg/mL (≈ 0.354 µM) against Cryptococcus neoformans [6]; less than 0.015 µg/mL in the assay with Cryptococcus neoformans [7]; less than 0.015 µg/mL against Cryptococcus neoformans [8]. The MIC is less than 0.015 µg/mL against Cryptococcus neoformans [9], 0.5 µg/mL (≈ 0.709 µM) in the assay with Cryptococcus neoformans [10] and less than 0.015 µg/mL in the assay on Cryptococcus neoformans [11].

As to `C[C@@H](c1ncncc1F)[C@](O)(Cn1cncn1)c1ccc(F)cc1F` [VORICONAZOLE], the MIC with Cryptococcus neoformans [3] was 0.03 µg/mL (≈ 0.0859 µM); against Cryptococcus neoformans [4], 0.25 µg/mL (≈ 0.716 µM); against Cryptococcus neoformans [5], 0.03 µg/mL (≈ 0.0859 µM); with Cryptococcus neoformans [6], less than 0.015 µg/mL; in the assay with Cryptococcus neoformans [7], less than 0.015 µg/mL; in the assay on Cryptococcus neoformans [8], less than 0.015 µg/mL. Also, the minimum inhibitory concentration (MIC) is 0.015 µg/mL (≈ 0.0429 µM) in the assay with Cryptococcus neoformans [9], 0.5 µg/mL (≈ 1.43 µM) in the assay with Cryptococcus neoformans [10] and less than 0.015 µg/mL against Cryptococcus neoformans [11].

Source of the values: ChEMBL document CHEMBL1143950, “Antifungal and cytotoxic activities of some N-substituted aniline derivatives bearing a hetaryl fragment” (Bioorg Med Chem, 2008).
